Source: ChEMBL document CHEMBL1148604 (J Med Chem, 2006)
In brackets after ≈: the same amount, converted by molar mass. Activity calls are given as the source filed them. The rule behind the calls is not given here.

Assays:
[1] = tested on: Escherichia coli; assay: Inhibitory activity against Escherichia coli ANSI; format: functional
[2] = molecular target: T1, Fatty acid synthase (Homo sapiens, UniProt P49327); assay: Inhibitory activity against human FAS1
Target sequence in this assay (P49327 whole entry): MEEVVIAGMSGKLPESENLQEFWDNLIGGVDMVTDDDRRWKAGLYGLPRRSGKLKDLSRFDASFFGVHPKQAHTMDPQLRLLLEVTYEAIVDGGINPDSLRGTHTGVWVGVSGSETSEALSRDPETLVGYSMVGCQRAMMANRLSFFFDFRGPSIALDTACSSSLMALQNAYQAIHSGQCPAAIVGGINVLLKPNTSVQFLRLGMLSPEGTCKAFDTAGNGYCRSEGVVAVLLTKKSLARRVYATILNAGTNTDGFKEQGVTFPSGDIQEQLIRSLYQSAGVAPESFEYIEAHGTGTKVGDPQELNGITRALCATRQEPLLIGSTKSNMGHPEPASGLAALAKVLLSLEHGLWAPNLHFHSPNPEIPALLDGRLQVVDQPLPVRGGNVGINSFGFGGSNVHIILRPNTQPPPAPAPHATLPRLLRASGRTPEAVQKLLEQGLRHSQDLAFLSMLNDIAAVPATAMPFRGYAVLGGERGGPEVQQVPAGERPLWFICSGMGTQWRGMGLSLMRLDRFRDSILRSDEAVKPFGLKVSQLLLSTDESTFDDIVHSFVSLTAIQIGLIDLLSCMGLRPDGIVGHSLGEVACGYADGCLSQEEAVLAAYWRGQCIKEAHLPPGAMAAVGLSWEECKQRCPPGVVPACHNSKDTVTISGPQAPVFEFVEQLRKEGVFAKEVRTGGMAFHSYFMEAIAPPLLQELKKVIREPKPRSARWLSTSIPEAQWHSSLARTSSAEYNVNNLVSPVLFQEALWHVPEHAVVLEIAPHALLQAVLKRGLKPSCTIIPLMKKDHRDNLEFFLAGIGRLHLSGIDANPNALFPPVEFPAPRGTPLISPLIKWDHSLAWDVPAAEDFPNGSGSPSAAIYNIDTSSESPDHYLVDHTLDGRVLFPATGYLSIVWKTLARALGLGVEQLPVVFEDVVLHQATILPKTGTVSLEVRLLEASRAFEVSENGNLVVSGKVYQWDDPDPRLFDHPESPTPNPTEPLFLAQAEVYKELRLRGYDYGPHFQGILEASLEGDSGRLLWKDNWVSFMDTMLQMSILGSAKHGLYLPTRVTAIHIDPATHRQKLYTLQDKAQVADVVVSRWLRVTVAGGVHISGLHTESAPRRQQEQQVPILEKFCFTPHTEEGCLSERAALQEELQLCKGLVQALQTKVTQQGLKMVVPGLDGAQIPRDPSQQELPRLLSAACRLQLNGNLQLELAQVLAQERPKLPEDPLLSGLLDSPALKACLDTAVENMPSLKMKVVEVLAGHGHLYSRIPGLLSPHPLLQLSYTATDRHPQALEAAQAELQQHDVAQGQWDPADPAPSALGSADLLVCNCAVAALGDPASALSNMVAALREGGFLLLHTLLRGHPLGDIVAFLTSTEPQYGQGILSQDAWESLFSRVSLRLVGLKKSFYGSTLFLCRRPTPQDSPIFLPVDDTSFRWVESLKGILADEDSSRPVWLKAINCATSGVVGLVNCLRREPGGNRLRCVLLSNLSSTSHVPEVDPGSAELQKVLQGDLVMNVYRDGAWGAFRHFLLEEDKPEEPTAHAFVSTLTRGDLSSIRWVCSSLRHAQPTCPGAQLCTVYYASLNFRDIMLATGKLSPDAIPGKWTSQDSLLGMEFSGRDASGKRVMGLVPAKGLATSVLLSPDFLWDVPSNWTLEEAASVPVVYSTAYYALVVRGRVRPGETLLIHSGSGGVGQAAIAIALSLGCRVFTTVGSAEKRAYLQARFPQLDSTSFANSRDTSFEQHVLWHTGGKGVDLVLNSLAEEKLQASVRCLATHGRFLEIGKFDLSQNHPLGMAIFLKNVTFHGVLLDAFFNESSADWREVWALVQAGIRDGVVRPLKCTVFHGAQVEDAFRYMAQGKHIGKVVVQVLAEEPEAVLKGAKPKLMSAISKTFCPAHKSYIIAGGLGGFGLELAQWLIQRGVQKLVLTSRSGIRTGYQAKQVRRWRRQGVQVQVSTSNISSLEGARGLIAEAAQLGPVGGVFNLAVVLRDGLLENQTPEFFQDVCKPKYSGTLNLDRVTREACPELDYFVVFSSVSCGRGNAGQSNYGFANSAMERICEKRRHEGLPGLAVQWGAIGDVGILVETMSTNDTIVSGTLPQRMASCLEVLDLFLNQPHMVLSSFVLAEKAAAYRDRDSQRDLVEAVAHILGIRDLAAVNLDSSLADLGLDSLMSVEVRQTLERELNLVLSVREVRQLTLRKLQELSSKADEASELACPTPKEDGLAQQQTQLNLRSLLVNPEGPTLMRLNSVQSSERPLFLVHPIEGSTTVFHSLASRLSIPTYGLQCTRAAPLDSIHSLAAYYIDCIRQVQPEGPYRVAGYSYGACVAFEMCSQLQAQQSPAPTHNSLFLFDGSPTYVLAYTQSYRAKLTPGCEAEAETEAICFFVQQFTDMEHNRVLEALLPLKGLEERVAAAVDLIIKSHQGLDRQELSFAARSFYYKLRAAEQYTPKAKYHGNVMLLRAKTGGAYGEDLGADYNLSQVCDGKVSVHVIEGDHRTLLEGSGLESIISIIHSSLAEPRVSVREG

[3] = tested on: Mycobacterium tuberculosis; assay: Inhibitory activity against Mycobacterium tuberculosis H37Rv; format: functional
[4] = molecular target: T2, 3-oxoacyl-[acyl-carrier-protein] synthase 1 (Escherichia coli K-12, UniProt P0A953); assay: Inhibitory activity against FabB from Escherichia coli ANSI
T2 sequence (P0A953 whole entry): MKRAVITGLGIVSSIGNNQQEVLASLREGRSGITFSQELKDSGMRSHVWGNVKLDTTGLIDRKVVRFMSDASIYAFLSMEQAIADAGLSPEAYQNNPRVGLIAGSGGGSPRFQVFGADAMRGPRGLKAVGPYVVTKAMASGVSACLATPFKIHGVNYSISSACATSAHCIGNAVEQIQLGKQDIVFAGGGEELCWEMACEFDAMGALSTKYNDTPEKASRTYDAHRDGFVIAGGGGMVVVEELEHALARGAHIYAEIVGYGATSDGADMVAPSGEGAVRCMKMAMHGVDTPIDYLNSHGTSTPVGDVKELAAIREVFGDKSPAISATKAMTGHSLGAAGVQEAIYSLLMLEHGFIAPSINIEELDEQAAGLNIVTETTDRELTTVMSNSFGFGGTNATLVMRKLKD

[5] = molecular target: T3, 3-oxoacyl-[acyl-carrier-protein] synthase 1 (Mycobacterium tuberculosis) (UniProt P9WQD9); assay: Inhibitory activity against KasA from Mycobacterium tuberculosis H37Rv at 100 uM
T3 sequence (whole entry): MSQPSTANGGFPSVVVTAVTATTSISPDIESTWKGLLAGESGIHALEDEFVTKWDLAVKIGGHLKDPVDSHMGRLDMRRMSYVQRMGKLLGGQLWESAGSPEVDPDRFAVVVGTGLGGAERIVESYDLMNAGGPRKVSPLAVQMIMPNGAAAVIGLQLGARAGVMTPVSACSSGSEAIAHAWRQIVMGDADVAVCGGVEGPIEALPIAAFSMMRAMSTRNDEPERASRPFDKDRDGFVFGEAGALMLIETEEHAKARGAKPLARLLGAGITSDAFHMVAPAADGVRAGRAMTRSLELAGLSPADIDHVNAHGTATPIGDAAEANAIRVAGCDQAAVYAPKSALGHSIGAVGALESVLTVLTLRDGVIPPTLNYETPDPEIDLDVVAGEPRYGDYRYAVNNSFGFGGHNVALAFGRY

[6] = molecular target: T4, 3-oxoacyl-[acyl-carrier-protein] synthase 2 (Mycobacterium tuberculosis) (UniProt P9WQD7); assay: Inhibitory activity against KasB from Mycobacterium tuberculosis H37Rv at 100 uM
T4 sequence (whole entry): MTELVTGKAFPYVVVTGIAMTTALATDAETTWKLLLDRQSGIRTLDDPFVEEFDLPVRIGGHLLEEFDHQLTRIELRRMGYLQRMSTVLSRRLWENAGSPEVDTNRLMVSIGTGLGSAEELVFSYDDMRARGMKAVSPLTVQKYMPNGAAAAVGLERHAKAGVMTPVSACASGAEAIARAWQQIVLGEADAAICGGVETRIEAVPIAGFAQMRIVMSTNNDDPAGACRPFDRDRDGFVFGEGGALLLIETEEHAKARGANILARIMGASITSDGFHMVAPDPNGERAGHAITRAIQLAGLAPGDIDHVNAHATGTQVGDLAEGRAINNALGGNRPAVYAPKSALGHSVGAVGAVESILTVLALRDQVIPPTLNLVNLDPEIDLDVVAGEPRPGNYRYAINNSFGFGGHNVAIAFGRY

[7] = molecular target: T5, 3-oxoacyl-[acyl-carrier-protein] synthase 3 (Escherichia coli) (UniProt C3TDZ2); assay: Inhibitory activity against FabH from Escherichia coli ANSI at 100 uM
T5 sequence (whole entry): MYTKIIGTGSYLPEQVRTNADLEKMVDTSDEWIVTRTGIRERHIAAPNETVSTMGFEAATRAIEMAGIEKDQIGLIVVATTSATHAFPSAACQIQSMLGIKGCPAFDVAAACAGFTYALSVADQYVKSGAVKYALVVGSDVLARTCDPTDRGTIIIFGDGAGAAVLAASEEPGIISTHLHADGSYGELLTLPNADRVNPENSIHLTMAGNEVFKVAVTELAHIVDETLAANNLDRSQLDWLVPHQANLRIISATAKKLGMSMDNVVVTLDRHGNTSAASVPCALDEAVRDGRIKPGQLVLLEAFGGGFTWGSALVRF

[8] = molecular target: T6, Mycobacterial beta-ketoacyl-[acyl-carrier-protein] synthase III (Mycobacterium tuberculosis) (UniProt P9WNG3); assay: Inhibitory activity against FabH from Mycobacterium tuberculosis H37Rv at 100 uM
T6 sequence (whole entry): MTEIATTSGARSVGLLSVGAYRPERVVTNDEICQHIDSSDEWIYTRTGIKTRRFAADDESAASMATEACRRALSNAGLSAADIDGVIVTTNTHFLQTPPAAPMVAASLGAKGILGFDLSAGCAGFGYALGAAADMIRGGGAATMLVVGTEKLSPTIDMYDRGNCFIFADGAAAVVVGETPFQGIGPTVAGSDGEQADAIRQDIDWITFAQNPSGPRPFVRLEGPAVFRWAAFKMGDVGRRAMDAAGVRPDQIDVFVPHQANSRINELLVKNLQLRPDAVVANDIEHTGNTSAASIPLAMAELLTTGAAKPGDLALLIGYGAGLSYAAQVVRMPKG

[9] = molecular target: wild-type apo-KasA (Mycobacterium tuberculosis, UniProt P9WQD9); assay: Inhibitory activity against KasA from Mycobacterium tuberculosis H37Rv
[10] = molecular target: T7, 3-oxoacyl-[acyl-carrier-protein] synthase 1 (Escherichia coli K-12) (UniProt P0A953); assay: Inhibitory activity against FabB from Escherichia coli ANSI at 100 uM
T7 sequence (whole entry): T2 sequence (P0A953 whole entry)

[11] = molecular target: T8, Mycobacterial beta-ketoacyl-[acyl-carrier-protein] synthase III (Mycobacterium tuberculosis, UniProt P9WNG3); assay: Inhibitory activity against FabH from Mycobacterium tuberculosis H37Rv
T8 sequence (P9WNG3 whole entry): T6 sequence (whole entry)

[12] = molecular target: T9, 3-oxoacyl-[acyl-carrier-protein] synthase 3 (Escherichia coli, UniProt C3TDZ2); assay: Inhibitory activity against FabH from Escherichia coli ANSI
T9 sequence (C3TDZ2 whole entry): T5 sequence (whole entry)

[13] = molecular target: T10, 3-oxoacyl-[acyl-carrier-protein] synthase 2 (Mycobacterium tuberculosis, UniProt P9WQD7); assay: Inhibitory activity against KasB from Mycobacterium tuberculosis H37Rv
T10 sequence (P9WQD7 whole entry): T4 sequence (whole entry)

[14] = molecular target: T1, Fatty acid synthase; assay: Inhibitory activity against human FAS1 at 100 uM
Target sequence in this assay (P49327 whole entry, looked up): as the sequence (P49327 whole entry) above

| Structure (SMILES) | MIC [1] [µM] | IC50 [2] [µM] | MIC [3] [µM] | IC50 [4] [µM] | inhibition [5] | inhibition [6] | inhibition [7] | inhibition [8] | IC50 [9] [µM] | inhibition [10] | IC50 [11] [µM] | IC50 [12] [µM] | IC50 [13] [µM] | inhibition [14] |
| --- | --- | --- | --- | --- | --- | --- | --- | --- | --- | --- | --- | --- | --- | --- |
| C=C/C(C)=C/C1(C)SC(O)=C(C)C1=O (racemic) [RAC-THIOLACTOMYCIN] | 12 (≈ 2.52 µg/mL) | 143 | 125 (≈ 26.3 µg/mL) | 20 | – | – | – | – | – | – | – | – | – | – |
| CC(C)=CCC1(C)SC(O)=C(C)C1=O (stereo unspecified) | > 1000 | – | > 1000 | – | < 30% | inactive | inactive | inactive | > 100 | inactive | – | – | – | – |
| C=CCCCC1(C)SC(=O)C(C)=C1O (stereo unspecified) | > 1000 | – | > 1000 | – | < 30% | inactive | inactive | inactive | > 100 | inactive | – | – | – | – |
| CC1=C(O)C(C)(Cc2ccc(Cl)c(Cl)c2)SC1=O (stereo unspecified) | > 1000 | – | 500 (≈ 152 µg/mL) | – | inactive | inactive | < 30% | < 30% | – | inactive | > 100 | > 100 | – | – |
| CC(C)=CCC/C(C)=C/CC/C(C)=C/CC1(C)SC(O)=C(C)C1=O (stereo unspecified) | 200 (≈ 69.7 µg/mL) | – | > 1000 | – | inactive | < 30% | < 30% | inactive | – | inactive | – | > 100 | > 100 | – |
| CC[C@H](C)CC1(C)SC(O)=C(C)C1=O (stereo partly specified) | > 1000 | – | 500 (≈ 107 µg/mL) | – | inactive | inactive | < 30% | inactive | – | inactive | – | > 100 | – | – |
| C/C=C/C(C)=C/[C@@]1(C)SC(O)=C(C)C1=O | 200 (≈ 44.9 µg/mL) | – | 1000 (≈ 224 µg/mL) | 500 | – | – | – | – | 50 | – | – | – | 400 | inactive |
| C=CCCCCC1(C)SC(=O)C(C)=C1O (stereo unspecified) | > 1000 | – | 1000 (≈ 226 µg/mL) | – | < 30% | inactive | inactive | inactive | > 100 | inactive | – | – | – | – |
| C=C/C=C/C1(C)SC(=O)C(C)=C1O (stereo unspecified) | 200 (≈ 39.3 µg/mL) | – | 1000 (≈ 196 µg/mL) | 500 | – | – | – | – | 25 | – | – | – | 400 | inactive |
| CCCCCCCCC1(C)SC(O)=C(C)C1=O (stereo unspecified) | 200 (≈ 51.3 µg/mL) | – | > 1000 | – | inactive | inactive | < 30% | < 30% | – | inactive | > 100 | > 100 | – | – |
| CC1=C(O)C(C)(CC2CC2)SC1=O (stereo unspecified) | > 1000 | – | > 1000 | – | inactive | inactive | < 30% | inactive | – | inactive | – | > 100 | – | – |
| CC/C(C)=C/[C@@]1(C)SC(O)=C(C)C1=O | > 200 | – | > 1000 | – | inactive | inactive | – | – | – | inactive | – | – | – | inactive |
| C=CC(C)C[C@@]1(C)SC(O)=C(C)C1=O (stereo partly specified) | > 200 | – | > 1000 | – | inactive | inactive | – | – | – | inactive | – | – | – | inactive |
| CCC(C)C[C@@]1(C)SC(O)=C(C)C1=O (stereo partly specified) | > 200 | – | > 1000 | – | inactive | inactive | – | – | – | inactive | – | – | – | inactive |
